Key:
Lewis lung-OVA tumors [1] = assay: PEP005-mediated cure of primary Lewis lung-OVA tumors, challenge with secondary Lewis lung-OVA; assay type: in vivo, C57BL/6 mice
Procedure: FIGS. 4A to D are graphical representations showing protection against secondary tumors following cure of primary tumors with PEP005. (A) C57BL/6 mice received 5×10^5 Lewis lung-OVA s.c. on the back on day less 7 (d−7). When these primary tumors had reached an average 13.6 mm^2±1.8 SE (range 10-25 mm^2) on d0 they were treated once with 16 μg of PEP005 delivered i.t. In eight mice these primary tumors were cured, and these mice received 5×10^5 Lewis lung-OVA s.c. on d4 on the opposite flank from the primary tumors. The emergence of these secondary tumors was monitored over time (PEP005 cured). In a parallel group of animals (n=5) PEP005 treatment regressed the primary tumors, but after 11-13 days the primary tumors re-emerged. These animals also received secondary tumors as above and their emergence was again monitored over time (PEP005 regressed). Two control groups were included. One group (n=6) received no primary tumors, but was treated s.c. with PEP005 and received secondary tumors on the opposite flank (white triangles, PEP005 s.c.). The second control group (n=8) also received no primary tumors, was not treated with PEP005, and received secondary tumors as above (Controls). […] The experiment in (A) was repeated in Foxnl^nu mice; PEP005 cured (n=4), PEP005 regressed (n=7), Control (n=7). A PEP005 s.c. group was not included. (C) Treatment of primary Lewis lung-OVA with PEP005 induced SIINFEKL-specific CD8^+ T-cell responses using IFNγ ELISPOT when the secondary tumors had emerged or on d50. (D) Reduced growth of B16-OVA lung metastases following successful treatment of s.c. B16-OVA tumors with PEP005. C57BL/6 mice received 5×10^5 B16-OVA s.c. on the back on d−6. When these primary tumors had reached 10-20 mm^2 on d0, they were treated once with 18 μg of PEP005 delivered i.t., which cured the tumors in eight mice (PEP005 cured) and regressed the tumors in five mice (PEP005 regressed). Controls as above. Secondary B16-OVA (10^5) were injected i.v. on d6 and animals were sacrificed on d27 and lung metastases counted.
(§1) B16 and B16 cells stably expressing ovalbumin (B16-OVA)were grown s.c. in C57BL/6 mice as described previously (Ogbourne et al, Cancer Res 64:2833-2839, 2004; Anraku et al, J Virol 76:3791-3799, 2002). Lung metastases were established as described (Zeh et al, J Immunol 162:989-994, 1999). Lewis lung-OVA (Nelson et al, J Immunol 166:5557-5566, 2001) were grown s.c. in C57BL/6 as described (Lenarczyk et al, Vaccine 22:963-974, 2004).
Tumors were treated by topical or intratumoral (i.t.) injection (using a 26 gauge needle) of (i) PEP0005 dissolved in acetone and then RPMI 1640 (final concentration of acetone 4%), or (ii) PEP005 formulated in PEG400. […]

B16-OVA tumors = assay: SIINFEKL-specific CD8+ T-cell induction after topical PEP005 treatment of B16-OVA (IFNγ ELISPOT); assay type: in vivo, C57/BL6 mice
Procedure: as §1
(§2) Tumors were treated by topical or intratumoral (i.t.) injection (using a 26 gauge needle) of (i) PEP0005 dissolved in acetone and then RPMI 1640 (final concentration of acetone 4%), or (ii) PEP005 formulated in PEG400.
(§3) Mouse splenocytes were analyzed by ex vivo IFNγ ELISPOT essentially as described previously (Le et al, Vaccine 19:4669-4675, 2001), but using MultiScreen-IP plates (Millipore) and 25 IU/ml of recombinant human IL-2 (Cetus).
Following three topical applications of PEP005 to established s.c. B16-OVA tumors on C57/BL6 mice, the number of SIINFEKL [SEQ ID NO:2]-specific CD8^+ T-cell induced were measured using IFNγ ELISPOT. As controls, the SIINFEKL [SEQ ID NO:2] specific CM^+ T-cell induced following (i) PEP005 treatment without tumor, (ii) mock treatment of B16 tumors and (iii) naïve mice (no PEP005 or tumor), were also tested.

Lewis lung-OVA tumors [2] = assay: Topical PEP005 treatment of Lewis lung-OVA tumors: tumor growth and SIINFEKL-specific CD8+ T-cell ELISPOT; assay type: in vivo, C57BL/6 mice
Procedure: as §1, §2, §3
Lewis lung-OVA tumors were established on five C57/B16 mice; when they had reached 10-20 mm^2, they were treated topically with PEP005. […] A parallel group of tumor-bearing mice (M7-12) were treated (vehicle only) and grew rapidly as expected with mean size±SD shown (FIG. 2, V(M7-12)). […] The sensitivity of this assay is about five spots per 10^6 splenocytes. […] Thus, again PEP005 treatment was associated with induction of anti-cancer CD8^+ T-cells.

[3] = topical PEP005, tumors 10-20 mm^2 at treatment

Question: C/C=C(/C)C(=O)O[C@H]1C(C)=C[C@]23C(=O)[C@@H](C=C(CO)[C@@H](O)[C@]12O)[C@H]1[C@@H](C[C@H]3C)C1(C)C [PEP005, ingenol-3-angelate] was tested. Which “growth of secondary tumors” value (Lewis lung-OVA tumors [1]; PEP005 regressed but failed to cure the primary tumors (n=5), not significant) did it give?
Answer: slightly delayed

Question: And the “growth of secondary tumors” value (Lewis lung-OVA tumors [1]; no primary tumors, PEP005 s.c. at a site distant from the secondary tumors)?
Answer: failed to reduce the growth of the secondary tumors

Question: What about the “animals in which secondary tumors failed to appear” value (Lewis lung-OVA tumors [1]; primary tumor cured by i.t. PEP005 (n=8), secondary inoculated d4 on opposite flank) of the same compound?
Answer: 50%

Question: And the “emergence of secondary tumors” value (Lewis lung-OVA tumors [1]; primary tumor cured by i.t. PEP005 (n=8), log rank p=0.002)?
Answer: significantly delayed

Question: What about the “tumor bearing animals cured” value (B16-OVA tumors; B16-OVA tumors treated topically with PEP005) of the same compound?
Answer: 4/7

Question: And the “SIINFEKL-specific CD8+ T-cell responses (IFNγ ELISPOT)” value (B16-OVA tumors; mice receiving PEP005 without tumor, limit of detection five spots/10^6 splenocytes)?
Answer: no significant responses

Question: What about the “SIINFEKL-specific CD8+ T-cell responses (IFNγ ELISPOT)” value (B16-OVA tumors; mice with B16-OVA tumors treated with three topical applications of PEP005 (cured mice, n=4), p=0.058 vs combined negative controls) of the same compound?
Answer: some weak variable responses

Question: And the “SIINFEKL-specific CD8+ T-cell responses” value (Lewis lung-OVA tumors [2]; animals with Lewis lung-OVA tumors treated topically with PEP005)?
Answer: a range of responses that correlated with the effectiveness of the treatment

Question: And the “SIINFEKL-specific CD8+ T-cell responses, mean ± SD for all mice” value (Lewis lung-OVA tumors [2]; topical PEP005, mice without tumors, assay sensitivity about five spots)?
Answer: 6.3±9.8 spots per 10^6 splenocytes

Question: What about the “animals showing a limited response of five treated” value (Lewis lung-OVA tumors [2]; [3]) of the same compound?
Answer: two

Question: And the “animals showing a partial response of five treated” value (Lewis lung-OVA tumors [2]; [3])?
Answer: two

Question: What about the “tumors cured of the five tumors treated” value (Lewis lung-OVA tumors [2]; [3]) of the same compound?
Answer: one
